Reference: patent publication US11932845B2, “Microorganisms and methods for production of 4-hydroxybutyrate, 1,4-butanediol and related compounds” (priority 2012, dated 2024)
Like-named read-outs stand apart in the source and are kept apart here.

Assays:
[1] = tested on: D(−)-lactate dehydrogenase from L. leichmanii; settings: compared with that on pyruvate; cited from earlier work
[2] = biological target: T1, L(+)-lactate dehydrogenase from rabbit muscle (Oryctolagus cuniculus, UniProt P13491); settings: compared with that on pyruvate; cited from earlier work
T1 construct: host or cells: rabbit muscle

[3] = tested on: L(+)-lactate dehydrogenase from A. eutrophus; settings: compared with that on pyruvate; cited from earlier work
[4] = tested on: alcohol dehydrogenase from Brevibacterium sp KU; settings: oxidation of alcohols, cited from earlier work; for Relative Activity: 2-phenylethanol taken as 100%
homoserine kinase = homoserine kinase (Escherichia coli, UniProt P00547); settings: cited from earlier work
homoserine kinase, sequence (P00547 whole entry): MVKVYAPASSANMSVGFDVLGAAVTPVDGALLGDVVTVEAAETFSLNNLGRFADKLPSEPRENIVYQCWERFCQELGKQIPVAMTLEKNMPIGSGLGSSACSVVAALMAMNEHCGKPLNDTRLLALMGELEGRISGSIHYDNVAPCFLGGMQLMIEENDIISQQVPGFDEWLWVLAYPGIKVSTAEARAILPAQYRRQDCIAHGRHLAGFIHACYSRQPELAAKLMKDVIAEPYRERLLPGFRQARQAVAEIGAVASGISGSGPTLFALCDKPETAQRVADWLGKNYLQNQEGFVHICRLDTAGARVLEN

aminotransferase = settings: activity considered 100% on tyrosine; cited from earlier work
cytochrome-bd oxidases = settings: cited from earlier work; for Km: pH 7
[5] = tested on: 4-HB to BDO conversion pathway; assay: Production of BDO from 10 mM 4-HB in recombinant E. coli strains; settings: for BDO: 10 mM 4-HB, 24 hours, cat2 (0034) on pZA33
Method: For the BDO production experiments, cat2 from Porphyromonas gingivalis W83 (gene 0034) was included on pZA33 for the conversion of 4-HB to 4-HB-CoA, while the candidate dehydrogenase genes were expressed on pZE13. The host strain was MG1655 lacI^Q. Along with the alcohol and aldehyde dehydrogenase candidates, we also tested the ability of CoA-dependent succinic semialdehyde dehydrogenases (sucD) to function in this step, due to the similarity of the substrates. Cells were grown to an OD of about 0.5 in LB medium supplemented with 10 mM 4-HB, induced with 1 mM IPTG, and culture broth samples taken after 24 hours and analyzed for BDO as described below.
Finally, the construct was tested for participation in the conversion of 4-HB to BDO. Host strains were transformed with the pZA33-0020-0021 construct described and pZE13-0002, and compared to use of cat2 in BDO production using the aerobic procedure used above in FIG. 5.

Alcohol dehydrogenase = Alcohol dehydrogenase (ADH) assay in the reductive direction, cell extracts; settings: cell extracts from MG1655 lacI^Q containing pZA33
Method: Alcohol (ADH) and aldehyde (ALD) dehydrogenase was assayed in the reductive direction using a procedure adapted from several literature sources (Durre et al., FEMS Microbiol. Rev. 17:251-262 (1995); Palosaari and Rogers, J. Bacteriol. 170:2971-2976 (1988) and Welch et al., Arch. Biochem. Biophys. 273:309-318 (1989). The oxidation of NADH is followed by reading absorbance at 340 nm every four seconds for a total of 240 seconds at room temperature. The reductive assays were performed in 100 mM MOPS (adjusted to pH 7.5 with KOH), 0.4 mM NADH, and from 1 to 50 μl of cell extract. The reaction is started by adding the following reagents: 100 μl of 100 mM acetaldehyde or butyraldehyde for ADH, or 100 μl of 1 mM acetyl-CoA or butyryl-CoA for ALD. The Spectrophotometer is quickly blanked and then the kinetic read is started. The resulting slope of the reduction in absorbance at 340 nm per minute, along with the molar extinction coefficient of NAD(P)H at 340 nM (6000) and the protein concentration of the extract, can be used to determine the specific activity.
Gene candidates for the 4-HB to BDO conversion pathway were next tested for activity when expressed in the E. coli host MG1655 lacI^Q. Recombinant strains containing each gene candidate expressed on pZA33 were grown in the presence of 0.25 mM IPTG for four hours at 37° C. to fully induce expression of the enzyme. Four hours after induction, cells were harvested and assayed for ADH and ALD activity as described above.

## CC(C)CC(=O)C(=O)O [4-Methyl-2-oxopentanoate]
[1]
  Activity (%) of D(−)-lactate dehydrogenase from L. leichmanii: 1.1%
[2]
  Activity (%) of L(+)-lactate dehydrogenase from rabbit muscle: 1.4%
[3]
  Activity (%) of L(+)-lactate dehydrogenase from A. eutrophus: 39.0%

## CC(C)C(=O)C(=O)O [3-Methyl-2-oxobutyrate]
[1]
  Activity (%) of D(−)-lactate dehydrogenase from L. leichmanii: 0.0%
[2]
  Activity (%) of L(+)-lactate dehydrogenase from rabbit muscle: 0.0%
[3]
  Activity (%) of L(+)-lactate dehydrogenase from A. eutrophus: 28.5%

## C[C@@H](CO)c1ccccc1 [(R)-2-Phenylpropanol]
[4]
  Relative Activity: 63 0%
  Km: 20 µM

## CCCC(=O)C(=O)O [2-Oxovalerate]
[1]
  Activity (%) of D(−)-lactate dehydrogenase from L. leichmanii: 0.0%
[2]
  Activity (%) of L(+)-lactate dehydrogenase from rabbit muscle: 0.7%
[3]
  Activity (%) of L(+)-lactate dehydrogenase from A. eutrophus: 125.0%

## CCCOC(=O)[C@@H](N)CCO [L-homoserine n-propyl ester]
Homoserine kinase
  % kcat: 76%

## CC(C)C[C@H](N)C(=O)O [leucine]
aminotransferase
  activity: 25%

## O=CC(=O)O [Glyoxylate]
[1]
  Activity (%) of D(−)-lactate dehydrogenase from L. leichmanii: 5.0%
[3]
  Activity (%) of L(+)-lactate dehydrogenase from A. eutrophus: 8.7%

## CC(O)c1ccccc1 (stereo not shown) [1-Phenylethanol]
[4]
  Relative Activity: 46 0%

## CCCCCCCCO [Sample 1-Octanol, 1-Octanol]
[4]
  Relative Activity: 101 0%

## CSCC[C@H](N)C(=O)O [methionine]
aminotransferase
  activity: 25%

## N[C@@H](CC=O)C(=O)O [L-aspartate β-semialdehyde]
Homoserine kinase
  % kcat: 8.2%
  Km: 280 ± 20 µM

## CCCCO [Sample 1-Butanol, 1-Butanol]
[4]
  Relative Activity: 111 0%

## COC(=O)[C@@H](N)CCO [L-homoserine methyl ester]
Homoserine kinase
  % kcat: 80%

## N[C@@H](Cc1ccc(O)cc1)C(=O)O [tyrosine]
aminotransferase
  activity: 100%

## CCCCCCCCCCCCO [Sample 1-Dodecanol, 1-Dodecanol]
[4]
  Relative Activity: 68 0%

## C[C@H](CO)c1ccccc1 [(S)-2-Phenylpropanol]
[4]
  Relative Activity: 156 0%
  Km: 157 µM

## CC(C)COC(=O)[C@@H](N)CCO [L-homoserine isobutyl ester]
Homoserine kinase
  % kcat: 84%

## CC(C)OC(=O)[C@@H](N)CCO [L-homoserine isopropyl ester]
Homoserine kinase
  % kcat: 74%

## N[C@@H](Cc1ccccc1)C(=O)O [phenylalanine]
aminotransferase
  activity: 90%

## Cytochrome bd-II
cytochrome-bd oxidases
  In vivo sp act: 70 ± 12 mol O2/mol cytochrome bd/s
  Vmax: 818 ± 75 mol O/mol cytochrome bd/s
cytochrome-bd oxidases; read-out: Km (O2) at pH 7
  Km: 2 ± 0.3 µM
cytochrome-bd oxidases; read-out: Km (UQ-H2) at pH 7
  Km: 250 ± 45 µM

## CCCCOC(=O)[C@@H](N)CCO [L-homserine n-butyl ester]
Homoserine kinase
  % kcat: 160%
  Km: 5800 ± 800 µM

## N[C@@H](CCO)C(=O)O [L-homoserine]
Homoserine kinase
  % kcat: 100%

## CCC(C)C(=O)C(=O)O (stereo not shown) [3-Methyl-2-oxovalerate]
[1]
  Activity (%) of D(−)-lactate dehydrogenase from L. leichmanii: 0.0%
[2]
  Activity (%) of L(+)-lactate dehydrogenase from rabbit muscle: 0.0%
[3]
  Activity (%) of L(+)-lactate dehydrogenase from A. eutrophus: 5.3%

## N[C@@H](Cc1c[nH]c2ccccc12)C(=O)O [tryptophan]
aminotransferase
  activity: 85%

## CCOC(=O)[C@@H](N)CCO [L-homoserine ethyl ester]
Homoserine kinase
  % kcat: 74%

## N[C@H](CO)CCO [L-2-amino-1,4-butanediol]
Homoserine kinase
  % kcat: 7.9%

## CCO [Ethanol]
[4]
  Relative Activity: 76 0%

## N[C@@H](CCCO)C(=O)O [L-2-amino-5-hydroxyvalerate]
Homoserine kinase
  % kcat: 9.9%
  Km: 1100 ± 500 µM

## O=C(O)C(=O)CF [3-Fluoropyruvate]
[1]
  Activity (%) of D(−)-lactate dehydrogenase from L. leichmanii: 40.0%
[2]
  Activity (%) of L(+)-lactate dehydrogenase from rabbit muscle: 74.3%
[3]
  Activity (%) of L(+)-lactate dehydrogenase from A. eutrophus: 33.6%

## N[C@H](CCO)C(=O)O [D-homoserine]
Homoserine kinase
  % kcat: 32%

## OCCCc1ccccc1 [3-Phenylpropanol]
[4]
  Relative Activity: 135 0%
  Km: 33 µM

## CCC(=O)C(=O)O [2-Oxobutyrate]
[1]
  Activity (%) of D(−)-lactate dehydrogenase from L. leichmanii: 1.1%
[2]
  Activity (%) of L(+)-lactate dehydrogenase from rabbit muscle: 18.6%
[3]
  Activity (%) of L(+)-lactate dehydrogenase from A. eutrophus: 107.0%

## CC(C)O [Sample 2-Propanol, 2-Propanol]
[4]
  Relative Activity: 54 0%

B1: 0008n: Gene ID 0008 (native), sucD, Clostridium kluyveri DSM 555, Succinic semialdehyde dehydrogenase (CoA-dependent) (protein, UniProt P38947 1-453, looked up)
Succinate-semialdehyde …: MSNEVSIKELIEKAKVAQKKLEAYSQEQVDVLVKALGKVVYDNAEMFAKEAVEETEMGVYEDKVAKCHLKSGAIWNHIKDKKTVGIIKEEPERALVYVAKPKGVVAATTPITNPVVTPMCNAMAAIKGRNTIIVAPHPKAKKVSAHTVELMNAELKKLGAPENIIQIVEAPSREAAKELMESADVVIATGGAGRVKAAYSSGRPAYGVGPGNSQVIVDKGYDYNKAAQDIITGRKYDNGIICSSEQSVIAPAEDYDKVIAAFVENGAFYVEDEETVEKFRSTLFKDGKINSKIIGKSVQIIADLAGVKVPEGTKVIVLKGKGAGEKDVLCKEKMCPVLVALKYDTFEEAVEIAMANYMYEGAGHTAGIHSDNDENIRYAGTVLPISRLVVNQPATTAGGSFNNGFNPTTTLGCGSWGRNSISENLTYEHLINVSRIGYFNKEAKVPSYEEIWG
[5]; Aerobic
  BDO/OD: 47.6
  BDO: 255.8 µM
[5]; Anaerobic
  BDO/OD: 98.1
  BDO: 60.8 µM
[5]; Microaerobic
  BDO/OD: 41.9
  BDO: 127.9 µM

B2: Cytochrome bo (protein, UniProt P0ABJ1 25-315; P0ABI8 1-663; P0ABJ3 1-204; P0ABJ6 1-109, looked up)
Cytochrome bo(3) ubiquinol … 1: CNSALLDPKGQIGLEQRSLILTAFGLMLIVVIPAILMAVGFAWKYRASNKDAKYSPNWSHSNKVEAVVWTVPILIIIFLAVLTWKTTHALEPSKPLAHDEKPITIEVVSMDWKWFFIYPEQGIATVNEIAFPANTPVYFKVTSNSVMNSFFIPRLGSQIYAMAGMQTRLHLIANEPGTYDGISASYSGPGFSGMKFKAIATPDRAAFDQWVAKAKQSPNTMSDMAAFEKLAAPSEYNQVEYFSNVKPDLFADVINKFMAHGKSMDMTQPEGEHSAHEGMEGMDMSHAESAH
Cytochrome bo(3) ubiquinol … 2: MFGKLSLDAVPFHEPIVMVTIAGIILGGLALVGLITYFGKWTYLWKEWLTSVDHKRLGIMYIIVAIVMLLRGFADAIMMRSQQALASAGEAGFLPPHHYDQIFTAHGVIMIFFVAMPFVIGLMNLVVPLQIGARDVAFPFLNNLSFWFTVVGVILVNVSLGVGEFAQTGWLAYPPLSGIEYSPGVGVDYWIWSLQLSGIGTTLTGINFFVTILKMRAPGMTMFKMPVFTWASLCANVLIIASFPILTVTVALLTLDRYLGTHFFTNDMGGNMMMYINLIWAWGHPEVYILILPVFGVFSEIAATFSRKRLFGYTSLVWATVCITVLSFIVWLHHFFTMGAGANVNAFFGITTMIIAIPTGVKIFNWLFTMYQGRIVFHSAMLWTIGFIVTFSVGGMTGVLLAVPGADFVLHNSLFLIAHFHNVIIGGVVFGCFAGMTYWWPKAFGFKLNETWGKRAFWFWIIGFFVAFMPLYALGFMGMTRRLSQQIDPQFHTMLMIAASGAVLIALGILCLVIQMYVSIRDRDQNRDLTGDPWGGRTLEWATSSPPPFYNFAVVPHVHERDAFWEMKEKGEAYKKPDHYEEIHMPKNSGAGIVIAAFSTIFGFAMIWHIWWLAIVGFAGMIITWIVKSFDEDVDYYVPVAEIEKLENQHFDEITKAGLKNGN
Cytochrome bo(3) ubiquinol … 3: MATDTLTHATAHAHEHGHHDAGGTKIFGFWIYLMSDCILFSILFATYAVLVNGTAGGPTGKDIFELPFVLVETFLLLFSSITYGMAAIAMYKNNKSQVISWLALTWLFGAGFIGMEIYEFHHLIVNGMGPDRSGFLSAFFALVGTHGLHVTSGLIWMAVLMVQIARRGLTSTNRTRIMCLSLFWHFLDVVWICVFTVVYLMGAM
Cytochrome bo(3) ubiquinol … 4: MSHSTDHSGASHGSVKTYMTGFILSIILTVIPFWMVMTGAASPAVILGTILAMAVVQVLVHLVCFLHMNTKSDEGWNMTAFVFTVLIIAILVVGSIWIMWNLNYNMMMH
cytochrome-bd oxidases
  Vmax: 225 mol O/mol cytochrome bd/s

B3: 0013: Gene ID 0013, bdhB, Clostridium acetobutylicum ATCC 824, Butanol dehydrogenase II (protein, UniProt Q04945 1-390, looked up)
NADH-dependent butanol …: MVDFEYSIPTRIFFGKDKINVLGRELKKYGSKVLIVYGGGSIKRNGIYDKAVSILEKNSIKFYELAGVEPNPRVTTVEKGVKICRENGVEVVLAIGGGSAIDCAKVIAAACEYDGNPWDIVLDGSKIKRVLPIASILTIAATGSEMDTWAVINNMDTNEKLIAAHPDMAPKFSILDPTYTYTVPTNQTAAGTADIMSHIFEVYFSNTKTAYLQDRMAEALLRTCIKYGGIALEKPDDYEARANLMWASSLAINGLLTYGKDTNWSVHLMEHELSAYYDITHGVGLAILTPNWMEYILNNDTVYKFVEYGVNVWGIDKEKNHYDIAHQAIQKTRDYFVNVLGLPSRLRDVGIEEEKLDIMAKESVKLTGGTIGNLRPVNASEVLQIFKKSV
Alcohol dehydrogenase
  Alcohol dehydrogenase, Substrate Acetaldehyde: 0.0142 μmol min^−1 mg cell protein^−1
  Alcohol dehydrogenase, Substrate Butyraldehyde: 0.0130 μmol min^−1 mg cell protein^−1
